Data: ChEMBL document CHEMBL1909294, “Translating clinical findings into knowledge in drug safety evaluation--drug induced liver injury prediction system (DILIps)” (PLoS Comput Biol, 2011)

What was measured:
[1] = system: Hepatotoxicity;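 as to HepSE bilirubinemia: bilirubinemia hepatic side effect score drawn from the DILIps training data, a prediction system for drug-induced liver injury; call rule not given here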;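 as to HepSE cholecystitis: Cholecystitis-related hepatic side effect score drawn from the DILIps (drug-induced liver injury prediction) training data set; call rule not given here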;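 as to HepSE cirrhosis: cirrhosis hepatic side effect score taken from the DILIps (drug-induced liver injury prediction) training set; call rule not given here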; as to HepSE hepatic failure: call rule not given here;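 as to HepSE hepatomegaly: hepatic side effect score for hepatomegaly, taken from the training set of the DILIps drug-induced liver injury prediction system; call rule not given here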;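 as to HepSE liver fatty: hepatic side effect score for fatty liver, taken from the DILIps training set for predicting drug-induced liver injury; call rule not given here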;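 as to HepSE liver function tests abnormal: hepatic side effect score taken from the DILIps (drug-induced liver injury prediction system) training data, here covering abnormal liver function test findings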
[2] = system: Hepatotoxicity; remark: listed apart in the source;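 as to HepSE bilirubinemia: bilirubinemia hepatic side effect score drawn from the DILIps training data, a prediction system for drug-induced liver injury; call rule not given here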;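 as to HepSE cirrhosis: cirrhosis hepatic side effect score taken from the DILIps (drug-induced liver injury prediction) training set; call rule not given here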; as to HepSE hepatic failure: call rule not given here;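 as to HepSE hepatomegaly: hepatic side effect score for hepatomegaly, taken from the training set of the DILIps drug-induced liver injury prediction system; call rule not given here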;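 as to HepSE liver fatty: hepatic side effect score for fatty liver, taken from the DILIps training set for predicting drug-induced liver injury; call rule not given here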;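 as to HepSE liver function tests abnormal: hepatic side effect score taken from the DILIps (drug-induced liver injury prediction system) training data, here covering abnormal liver function test findings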
[3] = system: Hepatotoxicity; remark: listed apart in the source;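 as to HepSE bilirubinemia: bilirubinemia hepatic side effect score drawn from the DILIps training data, a prediction system for drug-induced liver injury; call rule not given here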;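 as to HepSE cirrhosis: cirrhosis hepatic side effect score taken from the DILIps (drug-induced liver injury prediction) training set; call rule not given here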; as to HepSE hepatic failure: call rule not given here;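 as to HepSE hepatomegaly: hepatic side effect score for hepatomegaly, taken from the training set of the DILIps drug-induced liver injury prediction system; call rule not given here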;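 as to HepSE liver fatty: hepatic side effect score for fatty liver, taken from the DILIps training set for predicting drug-induced liver injury; call rule not given here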;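 as to HepSE liver function tests abnormal: hepatic side effect score taken from the DILIps (drug-induced liver injury prediction system) training data, here covering abnormal liver function test findings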
[4] = system: Hepatotoxicity; remark: listed apart in the source;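 as to HepSE bilirubinemia: bilirubinemia hepatic side effect score drawn from the DILIps training data, a prediction system for drug-induced liver injury; call rule not given here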;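 as to HepSE cirrhosis: cirrhosis hepatic side effect score taken from the DILIps (drug-induced liver injury prediction) training set; call rule not given here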; as to HepSE hepatic failure: call rule not given here;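 as to HepSE hepatomegaly: hepatic side effect score for hepatomegaly, taken from the training set of the DILIps drug-induced liver injury prediction system; call rule not given here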;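 as to HepSE liver fatty: hepatic side effect score for fatty liver, taken from the DILIps training set for predicting drug-induced liver injury; call rule not given here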;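 as to HepSE liver function tests abnormal: hepatic side effect score taken from the DILIps (drug-induced liver injury prediction system) training data, here covering abnormal liver function test findings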
[5] = system: Hepatotoxicity; remark: listed apart in the source; as to HepSE hepatic failure: call rule not given here
[6] = system: Hepatotoxicity; remark: listed apart in the source; as to HepSE hepatic failure: call rule not given here
[7] = system: Hepatotoxicity; remark: listed apart in the source
[8] = system: Hepatotoxicity; remark: listed apart in the source
[9] = system: Hepatotoxicity; remark: listed apart in the source
[10] = system: Hepatotoxicity; remark: listed apart in the source
[11] = system: Hepatotoxicity; remark: listed apart in the source
[12] = system: Hepatotoxicity; remark: listed apart in the source
[13] = system: Hepatotoxicity; remark: listed apart in the source
[14] = system: Hepatotoxicity; remark: listed apart in the source

Compound	HepSE_hepatic failure [1]	HepSE_liver fatty [2]	HepSE_cirrhosis [3]	HepSE_hepatomegaly [4]	HepSE_bilirubinemia [5]	HepSE_cholecystitis [7]	HepSE_hepatitis [9]	HepSE_liver disease [10]	HepSE_hepatic necrosis [11]	HepSE_cholelithiasis [12]	HepSE_jaundice [13]	HepSE_Combined Scores [14]	HepSE_liver function tests abnormal [6]	HepSE_elevated liver function tests [8]	further results
Clc1ccc(CO/N=C(\Cn2ccnc2)c2ccc(Cl)cc2Cl)c(Cl)c1 [OXICONAZOLE]	0	0	0	0	0	0	0	0	0	0	0	0	–	–	HepSE_liver function tests abnormal ([6]; Liver): 0; HepSE_elevated liver function tests ([8]; Liver): 0
COC(=O)[C@@H]1CC2=CC(=O)CC[C@]2(C)[C@@]23O[C@@H]2C[C@@]2(C)[C@@H](CC[C@@]24CCC(=O)O4)[C@H]13 [EPLERENONE]	1	0	0	0	0	0	0	0	0	0	0	1	0	0	–
C[C@@H]1C[C@H]2[C@@H]3C[C@H](F)C4=CC(=O)C=C[C@]4(C)[C@@]3(F)[C@@H](O)C[C@]2(C)[C@@]1(O)C(=O)CO [FLUMETHASONE]	0	0	0	0	0	0	0	0	0	0	0	0	0	0	–
FCOC(C(F)(F)F)C(F)(F)F [SEVOFLURANE]	1	0	0	0	1	0	1	0	1	0	1	5	0	0	–
UROFOLLITROPIN	0	0	0	0	0	0	0	0	0	0	0	0	0	0	–
CC[C@H]1OC(=O)[C@H](C)C(=O)[C@H](C)[C@@H](O[C@@H]2O[C@H](C)C[C@H](N(C)C)[C@H]2O)[C@](C)(OC)C[C@@H](C)C(=O)[C@H](C)[C@H]2N(CCCCn3cnc(-c4cccnc4)c3)C(=O)O[C@]12C [TELITHROMYCIN]	–	–	–	–	–	–	–	–	–	–	–	–	–	–	HepSE_hepatic failure ([1]; Liver): 1; HepSE_liver fatty ([2]; Liver): 0; HepSE_cirrhosis ([3]; Liver): 0; HepSE_hepatomegaly ([4]; Liver): 0; HepSE_bilirubinemia ([5]; Liver): 0; HepSE_liver function tests abnormal ([6]; Liver): 1; HepSE_cholecystitis ([7]; Liver): 0; HepSE_elevated liver function tests ([8]; Liver): 0; HepSE_hepatitis ([9]; Liver): 1; HepSE_liver disease ([10]; Liver): 0; HepSE_hepatic necrosis ([11]; Liver): 1; HepSE_cholelithiasis ([12]; Liver): 0; HepSE_jaundice ([13]; Liver): 1; HepSE_Combined Scores ([14]; Liver): 5
CCC1(c2ccc(N)cc2)CCC(=O)NC1=O (stereo not drawn) [AMINOGLUTETHIMIDE]	0	0	0	0	0	0	0	0	0	0	0	0	0	0	–
VERTEPORFIN	0	0	0	0	0	0	0	0	0	0	0	1	0	1	–
HYDROXOCOBALAMIN	0	0	0	0	0	0	0	0	0	0	0	0	0	0	–
[H]/N=C(/N)N[C@H]1[C@H](O)[C@@H](O)[C@H](O[C@@H]2O[C@@H](C)[C@](O)(C=O)[C@H]2O[C@@H]2O[C@@H](CO)[C@H](O)[C@@H](O)[C@@H]2NC)[C@@H](N/C(N)=N\[H])[C@@H]1O [STREPTOMYCIN]	–	–	–	–	–	–	–	–	–	–	–	–	–	–	HepSE_hepatic failure ([1]; Liver): 0; HepSE_liver fatty ([2]; Liver): 0; HepSE_cirrhosis ([3]; Liver): 0; HepSE_hepatomegaly ([4]; Liver): 0; HepSE_bilirubinemia ([5]; Liver): 0; HepSE_liver function tests abnormal ([6]; Liver): 0; HepSE_cholecystitis ([7]; Liver): 0; HepSE_elevated liver function tests ([8]; Liver): 0; HepSE_hepatitis ([9]; Liver): 0; HepSE_liver disease ([10]; Liver): 0; HepSE_hepatic necrosis ([11]; Liver): 0; HepSE_cholelithiasis ([12]; Liver): 0; HepSE_jaundice ([13]; Liver): 0; HepSE_Combined Scores ([14]; Liver): 0
CCOC(=O)[C@H](CCc1ccccc1)N[C@H]1CCCN2CCC[C@@H](C(=O)O)N2C1=O [CILAZAPRIL]	0	0	0	0	0	0	1	0	0	0	0	1	0	0	–
CCN(CC)CC#CCOC(=O)C(O)(c1ccccc1)C1CCCCC1 (stereo not drawn) [OXYBUTYNIN]	0	0	0	0	0	0	0	0	0	0	0	1	1	0	–
C[C@H]1O[C@H](O[C@H]2[C@H](O)[C@@H](O)[C@@H](O[C@H]3[C@H](O)[C@@H](O)C(O)O[C@@H]3CO)O[C@@H]2CO)[C@H](O)[C@@H](O)[C@@H]1N[C@H]1C=C(CO)[C@@H](O)[C@H](O)[C@H]1O (stereo partly drawn) [ACARBOSE]	0	0	0	0	0	0	1	0	0	0	1	3	1	0	–
OCC(S)CS (stereo not drawn) [DIMERCAPROL]	–	–	–	–	–	–	–	–	–	–	–	–	–	–	HepSE_hepatic failure ([1]; Liver): 0; HepSE_liver fatty ([2]; Liver): 0; HepSE_cirrhosis ([3]; Liver): 0; HepSE_hepatomegaly ([4]; Liver): 0; HepSE_bilirubinemia ([5]; Liver): 0; HepSE_liver function tests abnormal ([6]; Liver): 0; HepSE_cholecystitis ([7]; Liver): 0; HepSE_elevated liver function tests ([8]; Liver): 0; HepSE_hepatitis ([9]; Liver): 0; HepSE_liver disease ([10]; Liver): 0; HepSE_hepatic necrosis ([11]; Liver): 0; HepSE_cholelithiasis ([12]; Liver): 0; HepSE_jaundice ([13]; Liver): 0; HepSE_Combined Scores ([14]; Liver): 0
CC(C)C(=O)OCC(=O)[C@@]12O[C@H](C3CCCCC3)O[C@@H]1C[C@H]1[C@@H]3CCC4=CC(=O)C=C[C@]4(C)[C@H]3[C@@H](O)C[C@@]12C [CICLESONIDE]	0	0	0	0	0	0	0	0	0	0	0	0	0	0	–
CCCc1c2oc(C(=O)[O-])cc(=O)c2cc2c(=O)cc(C(=O)[O-])n(CC)c12.[Na+].[Na+] [NEDOCROMIL SODIUM]	0	0	0	0	0	0	0	0	0	0	0	0	0	0	–
CN1CCCC(n2nc(Cc3ccc(Cl)cc3)c3ccccc3c2=O)CC1 (stereo not drawn) [AZELASTINE]	0	0	0	0	0	0	0	0	0	0	0	0	0	0	–
